# Measurements from US20260241043A1, “Carrier Peptide Fragment and Use Thereof” (TOAGOSEI CO., LTD., priority 2022, published 2026).
# Primed or numbered codes have the meaning given here. FAM″ = C-terminal FAM dye
# Tested on: NSC-34 cells
# Test: Evaluation on cell membrane permeability by flow cytometry
# Type: cell-based, mouse
# Settings: 10 μM additive, 0.5% DMSO, 20 hours incubation at 37° C., fluorescence detector FL2
# Description: As the eukaryotic cells, NSC-34 cells (mouse motor neuron-like hybrid cell line) were used and the cell membrane permeability of the constructs 1 to 3 was analyzed. In Examples 1 to 3, the prepared samples 1 to 3 were used, respectively, and in Example 4, a FAM solution was used.
# The NSC-34 cells were cultured in 10% fetal bovine serum (FBS)-containing Dulbecco's modified Eagle's medium (DMEM (Cat No. 044-29765, manufactured by FUJIFILM Wako Pure Chemical Corporation)), which is a normal culture medium.
# The NSC-34 cells that adhered to a culture plate were cleaned with PBS and then, a 0.25%-trypsin/EDTA solution was added thereto, and incubation was performed for three minutes at 37° C. After the incubation, the aforementioned 10% FBS-containing DMEM was added to deactivate trypsin and then, five-minute centrifugal separation was performed at 150×g to precipitate the cells. After the supernatant generated by the centrifugal separation was removed, the 10% FBS-containing DMEM was added to the precipitate (cell pellet) to prepare a cell suspension of about 2× 10^5 cells/mL. The cell suspension was added by 1 mL to a well of a commercially available six-hole (well) plate (manufactured by AGC TECHNO GLASS Co., Ltd.) so as to seed the cell (about 2× 10^5 cells/well). In addition, the 2 mM sample solution 1 was diluted with the 10% FBS-containing DMEM to prepare the sample solution 1 in which the concentration of the sample 1 was 20 μM. […]
# Regarding the obtained cells (cell pellet), the cell membrane permeability of the sample 1 was analyzed using a flow cytometer. […]
# Using the aforementioned flow cytometer, gating based on forward scatter (FSC) and side scatter (SSC) was performed to set a gate about a cell group to be analyzed, and the fluorescence intensity was measured about the cell group in this gate. […] The fluorescence intensity was measured using a fluorescence detector FL2 of the flow cytometer (optimum detection wavelength around 543 nm) capable of detecting the fluorescence wavelength of FAM. […]
row,Substance,MFI (median fluorescence intensity)
1,"Ac-RKKRNSKRLTRKK-FAM (Ac-RKKRNSKRLTRKK-{FAM″}) [Example 1, N-terminally acetylated peptide 1 (all L-form) with FAM fluorescent dye bonded to the C-terminus]",14.6
2,Ac-RkkRNSkRLTRkk-FAM [Example 3],27.3
3,Ac-rKKrNSKrLTrKK-FAM [Example 2],37.7
